Literature values, collected in patent publication US9714250B2, “Crystalline forms of temozolomide and the method for preparing same” (Jiangsu Tasly Diyi Pharmaceutical Co., Ltd., priority 2013, dated 2017).

Conditions: heated to approximately 30° C.; in US20050187206; cited from earlier work

In the case of `Cn1nnc2c(C(N)=O)ncn2c1=O` [Form I, Temozolomide], the “Crystalline form transformation on heating” value is listed as “transformed into crystalline Form II”.
